Test results published in article PMC11821233, “Impact of Bioactive Ingredients on the Fecal Excretion of Aflatoxin B1 and Ochratoxin A in Wistar Rats” (Molecules, 2025).
Where “and” joins values, the source holds several entries; their conditions need not be identical. Equal entries are not always repeated. Where two headings read alike, the source gives them in different places.

Key:
[1] = not given; remark: listed apart in the source
[2] = females, feces collected in the fourth week of the in vivo study, label = diet group, LOD 0.1 µg/kg
[3] = males, feces collected in the fourth week of the in vivo study, label = diet group, LOD 0.1 µg/kg

Compound | Concentration of OTA in rat feces [2] | Concentration of OTA in rat feces [3] | Concentration of AFB1 in rat feces [1, 2] | Concentration of AFB1 in rat feces [1, 3] | Concentration of OTA in rat feces (rat, in vivo) | Concentration of AFB1 in rat feces ([1]; rat, in vivo)
C[C@@H]1Cc2c(Cl)cc(C(=O)N[C@@H](Cc3ccccc3)C(=O)O)c(O)c2C(=O)O1 [OTA, ochratoxin A] | 933 ± 512 µg mycotoxin/kg dry feces | 1729 ± 712 µg mycotoxin/kg dry feces | <LOD | <LOD | – | –
aflatoxin B1 [AFB1] | – | – | – | – | <LOD | 52 ± 61 µg mycotoxin/kg dry feces and 91 ± 77 µg mycotoxin/kg dry feces
